# Results taken from patent publication US20240150358A1, “PURINES AND METHODS OF THEIR USE” (Kineta, Inc., priority 2020, published 2024).
# Target: full-length human PIKFYVE (Homo sapiens (Human), UniProt Q9Y2I7, L932S/Q1183K/Q995L/S1033A/S696N/T998S)
# Experiment: PIKfyve biochemical assay (ADP-Glo Kinase assay, Carna Biosciences)
# Conditions: ADP-Glo, GST-PIKFYVE, 10 μM to 3 nM; read-out: hPIKfyve IC50
# Method: (§1) PIKfyve Biochemical Assay. The biochemical PIKFyve inhibition assays were run by Carna Biosciences according to proprietary methodology based on the Promega ADP-Glo™ Kinase assay. […] GST-PIKFYVE was purified by using glutathione sepharose chromatography and used in an ADP-Glo™ Kinase assay (Promega). Reactions were set up by adding the test compound solution, substrate solution, ATP solution and kinase solution, each at 4× final concentrations. Reactions were prepared with assay buffer (50 mM MOPS, 1 mM DTT, pH7.2), mixed, and incubated in black 384 well polystyrene plates for 1 hour at room temperature. ADPGlo™ reagent was then added for 40 minutes, followed by kinase detection reagent for an additional 40 minutes. The kinase activity was evaluated by detecting relative light units on a luminescence plate reader. Samples were run in duplicate from 10 μM to 3 nM. […] IC50 values were calculated from concentration vs % inhibition curves by fitting to a four-parameter logistic curve.
# as §1, with “The” for “PIKfyve Biochemical Assay. The”, “ADP-Glo™” for “ADPGlo™”, “uM” for “μM”, “curve. […]” for “curve.”
# full-length human PIKFYVE, sequence (Q9Y2I7 whole entry S696N/L932S/Q995L/T998S/S1033A/Q1183K): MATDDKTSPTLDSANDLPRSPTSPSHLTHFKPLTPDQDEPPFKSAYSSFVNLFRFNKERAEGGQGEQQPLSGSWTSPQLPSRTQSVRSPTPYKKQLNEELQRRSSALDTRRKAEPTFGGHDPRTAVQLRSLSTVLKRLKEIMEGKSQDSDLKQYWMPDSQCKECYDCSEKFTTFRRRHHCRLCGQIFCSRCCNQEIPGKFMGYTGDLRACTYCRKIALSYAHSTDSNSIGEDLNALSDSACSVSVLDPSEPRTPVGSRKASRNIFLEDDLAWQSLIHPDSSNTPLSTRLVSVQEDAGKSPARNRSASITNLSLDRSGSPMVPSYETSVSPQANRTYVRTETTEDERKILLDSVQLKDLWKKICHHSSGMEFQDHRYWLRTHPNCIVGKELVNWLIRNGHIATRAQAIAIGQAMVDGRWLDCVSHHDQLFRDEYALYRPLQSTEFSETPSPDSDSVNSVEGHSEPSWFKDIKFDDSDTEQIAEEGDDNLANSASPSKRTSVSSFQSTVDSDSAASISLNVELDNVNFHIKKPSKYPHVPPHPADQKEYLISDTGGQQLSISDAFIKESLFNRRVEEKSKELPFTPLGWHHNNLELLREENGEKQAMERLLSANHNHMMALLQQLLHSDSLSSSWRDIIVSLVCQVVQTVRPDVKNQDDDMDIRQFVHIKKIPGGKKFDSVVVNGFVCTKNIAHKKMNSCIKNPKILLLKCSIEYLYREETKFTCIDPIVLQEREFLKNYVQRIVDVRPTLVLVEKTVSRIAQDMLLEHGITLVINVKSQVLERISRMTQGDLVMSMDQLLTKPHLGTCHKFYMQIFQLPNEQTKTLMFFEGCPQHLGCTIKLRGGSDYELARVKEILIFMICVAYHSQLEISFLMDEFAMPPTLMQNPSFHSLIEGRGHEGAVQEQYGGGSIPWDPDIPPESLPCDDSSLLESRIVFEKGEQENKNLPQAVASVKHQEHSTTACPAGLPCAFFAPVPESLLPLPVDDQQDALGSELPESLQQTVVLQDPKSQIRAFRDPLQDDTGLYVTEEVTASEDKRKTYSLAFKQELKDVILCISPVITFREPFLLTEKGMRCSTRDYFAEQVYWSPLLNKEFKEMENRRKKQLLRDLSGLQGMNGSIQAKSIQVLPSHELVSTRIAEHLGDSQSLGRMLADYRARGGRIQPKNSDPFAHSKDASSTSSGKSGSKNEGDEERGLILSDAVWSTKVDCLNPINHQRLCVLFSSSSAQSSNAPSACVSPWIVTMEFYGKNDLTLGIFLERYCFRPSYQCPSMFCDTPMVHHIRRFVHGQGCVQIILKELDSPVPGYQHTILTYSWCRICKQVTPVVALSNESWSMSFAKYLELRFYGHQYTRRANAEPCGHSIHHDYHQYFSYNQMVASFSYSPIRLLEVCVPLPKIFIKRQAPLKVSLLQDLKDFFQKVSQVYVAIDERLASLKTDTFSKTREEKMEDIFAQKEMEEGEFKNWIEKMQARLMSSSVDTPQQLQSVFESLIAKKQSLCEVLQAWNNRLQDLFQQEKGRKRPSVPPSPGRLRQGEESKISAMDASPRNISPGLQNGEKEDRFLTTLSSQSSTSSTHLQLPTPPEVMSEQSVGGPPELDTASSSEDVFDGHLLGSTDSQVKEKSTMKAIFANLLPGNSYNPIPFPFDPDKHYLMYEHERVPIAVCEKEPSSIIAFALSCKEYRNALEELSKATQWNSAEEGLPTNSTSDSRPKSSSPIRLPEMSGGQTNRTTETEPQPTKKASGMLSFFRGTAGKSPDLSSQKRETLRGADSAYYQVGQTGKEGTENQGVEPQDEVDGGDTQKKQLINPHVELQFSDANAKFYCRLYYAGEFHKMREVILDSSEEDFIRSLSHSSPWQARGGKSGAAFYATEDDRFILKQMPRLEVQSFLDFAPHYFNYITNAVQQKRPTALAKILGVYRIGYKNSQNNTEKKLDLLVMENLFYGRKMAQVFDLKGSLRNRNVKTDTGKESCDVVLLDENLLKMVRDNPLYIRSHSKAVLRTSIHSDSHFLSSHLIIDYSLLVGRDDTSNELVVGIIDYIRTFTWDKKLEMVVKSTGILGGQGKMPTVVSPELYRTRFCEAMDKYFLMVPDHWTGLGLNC
row,SMILES,IC50
1,Cn1c(C2CCOCC2)nc2c(N3CCOCC3)nc(-n3ccc(-c4ccccc4)n3)nc21 [Compound 12],100 to 1000 nM
2,Cc1nn(-c2nc(N3CCOCC3)c3nc(-c4ccncc4)n(C)c3n2)c(=O)n1-c1ccccc1 [Compound 24],100 to 1000 nM
3,Cn1c(C2CCOCC2)nc2c(N3CCOCC3)nc(-n3ccc(-c4cncnc4)n3)nc21 [Compound 20],1000 to 10000 nM
4,Cn1c(-c2ccncc2)nc2c(N3CCOCC3)nc(-n3ccc(C4CCOCC4)n3)nc21 [Compound 25],100 to 1000 nM
5,CCn1c(-c2ccncc2)nc2c(N3CCOCC3)nc(-n3ccc(-c4ccccc4)n3)nc21 [Compound 5],10 to 100 nM
6,Cn1c(-c2ccncc2)nc2c(N3CCOCC3)nc(-n3ccc(-c4ccncc4)n3)nc21 [Compound 27],10 to 100 nM
7,Cn1c(-c2ccncc2)nc2c(N3CCOCC3)nc(-n3ccc(C4CC5(C4)CN(C(=O)OC(C)(C)C)C5)n3)nc21 [Compound 34],100 to 1000 nM
8,"Cn1c(-c2ccncc2)nc2c(N3CCOCC3)nc(-c3noc(C4CCCN(C(=O)OC(C)(C)C)C4)n3)nc21 (stereo not drawn) [Compound 33, tert-butyl 3-{3-[9-methyl-6-(morpholin-4-yl)-8-(pyridin-4-yl)-9H-purin-2-yl]-1,2,4-oxadiazol-5-yl}piperidine-1-carboxylate]",100 to 1000 nM
9,Cn1c(-c2ccncc2)nc2c(N3CCOCC3)nc(-c3ccn(C4CCCNC4)n3)nc21 (stereo not drawn) [Compound 41],100 to 1000 nM
10,Cn1c(C2CCNCC2)nc2c(N3CCOCC3)nc(-n3ccc(-c4ccccc4)n3)nc21 [Compound 11],100 to 1000 nM
11,CN1CCC(c2nc3c(N4CCOCC4)nc(-n4ccc(-c5ccccc5)n4)nc3n2C)CC1 [Compound 9],100 to 1000 nM
12,Cn1c(-c2ccncc2)nc2c(N3CCOCC3)nc(-n3ccc(C4CCCNC4)n3)nc21 (stereo not drawn) [Compound 17],100 to 1000 nM
13,Cn1c(-c2ccncc2)nc2c(N3CCOCC3)nc(-n3ccc(C4CC5(CNC5)C4)n3)nc21 [Compound 35],10 to 100 nM
14,Cn1c(C2CCOCC2)nc2c(N3CCOCC3)nc(-n3ccc(C4CCCNC4)n3)nc21 (stereo not drawn) [Compound 16],1000 to 10000 nM
15,"Cn1c(-c2ccncc2)nc2c(N3CCOCC3)nc(-n3ccc(-c4cccnc4)n3)nc21 [Compound 7, 9-methyl-6-(morpholin-4-yl)-2-[3-(pyridin-3-yl)-1H-pyrazol-1-yl]-8-(pyridin-4-yl)-9H-purine]",10 to 100 nM
16,Cn1c(C2=CCOCC2)nc2c(N3CCOCC3)nc(-n3ccc(-c4ccccc4)n3)nc21 [Compound 14],10 to 100 nM
17,"Cn1c(C2CN(C(=O)OC(C)(C)C)C2)nc2c(N3CCOCC3)nc(-n3ccc(-c4ccccc4)n3)nc21 [Compound 13, tert-butyl 3-(9-methyl-6-morpholino-2-(3-phenyl-1H-pyrazol-1-yl)-9H-purin-8-yl)azetidine-1-carboxylate]",10 to 100 nM

# The next lines start with the values.
row,IC50,SMILES
1,100 to 1000 nM,CS(=O)(=O)N1CCN(Cc2cc3c(N4CCOCC4)nc(-c4cccc5[nH]ncc45)nc3s2)CC1 [Compound 117]
2,1000 to 10000 nM,"Cn1c(-c2ccncc2)nc2c(N3CCOCC3)nc(-n3ccc(C4CCOC4)n3)nc21 (stereo not drawn) [Compound 96, 4-(9-methyl-8-(pyridin-4-yl)-2-(3-(tetrahydrofuran-3-yl)-1H-pyrazol-1-yl)-9H-purin-6-yl)morpholine]"
3,< 10 nM,"Cn1c(C2CCNCC2)nc2c(N3CCOCC3)nc(-c3ccc4c(c3)OCCO4)nc21 [Compound 113, 4-(2-(2,3-dihydrobenzo[b][1,4]dioxin-6-yl)-9-methyl-8-(piperidin-4-yl)-9H-purin-6-yl)morpholine]"
4,100 to 1000 nM,c1ccc(-c2nccc(-c3nc(N4CCOCC4)c4sc(-c5ccncc5)nc4n3)n2)cc1 [Compound 125]
5,10 to 100 nM,"c1ccc(-c2nc(-c3nc(N4CCOCC4)c4nc(-c5ccncc5)[nH]c4n3)no2)cc1 [Compound 109, 4-(2-(5-phenyl-1,2,4-oxadiazol-3-yl)-8-(pyridin-4-yl)-9H-purin-6-yl)morpholine]"
6,< 10 nM,"Cn1c(-c2ccncc2)nc2c(N3CCOCC3)nc(-n3ccc(C(F)(F)F)n3)nc21 [Compound 100, 4-(9-methyl-8-(pyridin-4-yl)-2-(3-(trifluoromethyl)-1H-pyrazol-1-yl)-9H-purin-6-yl)morpholine]"
7,10 to 100 nM,"Cn1c(-c2ccncc2)nc2c(N3CCOCC3)nc(-c3ccc(Cl)cn3)nc21 [Compound 98, 4-(2-(5-chloropyridin-2-yl)-9-methyl-8-(pyridin-4-yl)-9H-purin-6-yl)morpholine]"
8,10 to 100 nM,"Cn1c(C2=CCOCC2)nc2c(N3CCOCC3)nc(-n3ccc(-c4cccnc4)n3)nc21 [Compound 85, 4-(8-(3,6-dihydro-2H-pyran-4-yl)-9-methyl-2-(3-(pyridin-3-yl)-1H-pyrazol-1-yl)-9H-purin-6-yl)morpholine]"
9,100 to 1000 nM,Cn1c(-c2ccncc2)nc2c(N3CCOCC3)nc(-c3cccc4c3OCCO4)nc21 [Compound 44]
10,100 to 1000 nM,Cn1c(-c2ccncc2)nc2c(N3CCOCC3)nc(-c3ccnn3C3CCCN(C(=O)OC(C)(C)C)C3)nc21 (stereo not drawn) [Compound 42]
11,< 10 nM,"CN1Cc2ccc(-c3nc(N4CCOCC4)c4nc(-c5ccncc5)n(C)c4n3)cc2C1=O [Compound 107, 2-methyl-6-(9-methyl-6-morpholino-8-(pyridin-4-yl)-9H-purin-2-yl)isoindolin-1-one]"
12,< 10 nM,"CN1CC(Cc2ccn(-c3nc(N4CCOCC4)c4nc(-c5ccncc5)n(C)c4n3)n2)C1 [Compound 86, 4-(9-methyl-2-(3-((1-methylazetidin-3-yl)methyl)-1H-pyrazol-1-yl)-8-(pyridin-4-yl)-9H-purin-6-yl)morpholine]"
13,100 to 1000 nM,"Cn1c(-c2ccncc2)nc2c(N3CCOCC3)nc(-n3ccc(CC4CNC4)n3)nc21 [Compound 80, 4-(2-(3-(azetidin-3-ylmethyl)-1H-pyrazol-1-yl)-9-methyl-8-(pyridin-4-yl)-9H-purin-6-yl)morpholine]"
14,10 to 100 nM,c1ccc(-c2nccc(-c3nc(N4CCOCC4)c4nc(-c5ccncc5)sc4n3)n2)cc1 [Compound 123]
15,10 to 100 nM,c1ccc(-c2nccc(-c3nc(N4CCOCC4)c4cc(-c5ccncc5)sc4n3)n2)cc1 [Compound 122]
16,10 to 100 nM,"Cn1c(C2CNC2)nc2c(N3CCOCC3)nc(-n3ccc(-c4ccccc4)n3)nc21 [Compound 83, 4-(8-(azetidin-3-yl)-9-methyl-2-(3-phenyl-1H-pyrazol-1-yl)-9H-purin-6-yl)morpholine]"
17,10 to 100 nM,"Cn1c(-c2ccncc2)nc2c(N3CCOCC3)nc(-n3ccc(-c4cncnc4)n3)nc21 [Compound 82, 4-(9-methyl-8-(pyridin-4-yl)-2-(3-(pyrimidin-5-yl)-1H-pyrazol-1-yl)-9H-purin-6-yl)morpholine]"
18,10 to 100 nM,c1ccc(-n2ccc(-c3nc(N4CCOCC4)c4cc(-c5ccncc5)sc4n3)n2)cc1 [Compound 124]
19,10 to 100 nM,"Cn1c(-c2ccncc2)nc2c(N3CCOCC3)nc(N3CCC(F)(F)C3)nc21 [Compound 101, 4-(2-(3,3-difluoropyrrolidin-1-yl)-9-methyl-8-(pyridin-4-yl)-9H-purin-6-yl)morpholine]"
20,100 to 1000 nM,"Cn1c(-c2ccncc2)nc2c(N3CCOCC3)nc(-n3nc(C4CCCCC4)[nH]c3=O)nc21 [Compound 50, 3-cyclohexyl-1-[9-methyl-6-(morpholin-4-yl)-8-(pyridin-4-yl)-9H-purin-2-yl]-4,5-dihydro-1H-1,2,4-triazol-5-one]"
21,10 to 100 nM,"Cn1c(-c2ccncc2)nc2c(N3CCOCC3)nc(-c3nccc(C4CC4)n3)nc21 [Compound 103, 4-(2-(4-cyclopropylpyrimidin-2-yl)-9-methyl-8-(pyridin-4-yl)-9H-purin-6-yl)morpholine]"
22,10 to 100 nM,"Cn1c(-c2ccncc2)nc2c(N3CCOCC3)nc(-n3cc(-c4ccncc4)cn3)nc21 [Compound 93, 4-(9-methyl-8-(pyridin-4-yl)-2-(4-(pyridin-4-yl)-1H-pyrazol-1-yl)-9H-purin-6-yl)morpholine]"
23,< 10 nM,"CN1CC(c2ccn(-c3nc(N4CCOCC4)c4nc(-c5ccncc5)n(C)c4n3)n2)CCC1=O (stereo not drawn) [Compound 88, 1-methyl-5-(1-(9-methyl-6-morpholino-8-(pyridin-4-yl)-9H-purin-2-yl)-1H-pyrazol-3-yl)piperidin-2-one]"
24,10 to 100 nM,"Cn1c(-c2ccncc2)nc2c(N3CCOCC3)nc(NC3CCCC3)nc21 [Compound 102, N-cyclopentyl-9-methyl-6-morpholino-8-(pyridin-4-yl)-9H-purin-2-amine]"
25,100 to 1000 nM,Cn1ccc(-c2nc(N3CCOCC3)c3nc(-c4ccncc4)n(C)c3n2)n1 [Compound 48]
26,10 to 100 nM,"Cn1c(-c2ccncc2)nc2c(N3CCOCC3)nc(-c3ccnc(C4CC4)n3)nc21 [Compound 97, 4-(2-(2-cyclopropylpyrimidin-4-yl)-9-methyl-8-(pyridin-4-yl)-9H-purin-6-yl)morpholine]"

# Same assay, conditions: values plotted in FIG. 7; read-out: PIKFYVE Biochemistry (IC50)
row,SMILES,IC50
1,O=c1c(CCOc2cccnc2)cc2ncncc2n1-c1ccccc1,> 10000 nM
2,O=c1ccn(Cc2nc(N3CCOCC3)cc(-n3nccc3-c3ccccc3)n2)cc1,> 10000 nM
